Like-named read-outs stand apart in the source and are kept apart here.
Tests used:
[1] = system: neutrophil cluster aggregation; experiment: CuSO4-induced inflammation model in Tg(mpx:eGFP) zebrafish; settings: 10 μM CuSO4 40 min, Tg(mpx:eGFP) 3 dpf
[2] = Protocol: All tests were conducted in the animal experimental center of Guangxi Medical University. Preliminary experiments were needed before starting official tests. […] Groups of mice (n = 10 per group, half male and half female) received different doses of the tested compounds by gavage at the same single dose of drug solution, which was uniformed to be […] (drug solution)/10 g, but containing different concentration of tested drugs. […] We compared these mice with the control group in which the mice were not given drugs, according to the pre-experimental procedure. We closely observed the mice for 6 h after the gavage for signs of toxicity and mortality. As soon as death occurred among the maximum-dose group, we conducted an autopsy and took samples from the main organs for histopathological examination. In addition, we monitored all of the tested mice for 2 weeks to record their weight and mortality.
[3] = system: wild type AB strain zebrafish; settings: for statistical death of the tested zebrafish / statistical survival of the tested zebrafish: 30 embryos per well
Protocol: Zebrafish were incubated and grown in the Joint Laboratory established by Shandong Rui’ying Pharmaceutical Group (Heze, China) and China Pharmaceutical University. Both the Wild-type AB (Danio rerio) and Tg(mpx:eGFP) zebrafish strains were maintained under the guidance of the standard procedures of The Zebrafish Book. […] Then the zebrafish were allowed to naturally mate and spawn the next morning. The normally born embryos were then collected after 1 h and kept in an incubating system at 28 °C. The 6 hpf (hour post fertilization) embryos were transferred into a 6-well plate exposed to 5 mL of egg water, in which 30 embryos were in each well.

E. coli [4] = experiment: Quasi-clinical trial on E. coli-infected AA broilers (drug-mixed feeding); settings: for Average Final Weight / Average Weight Gain / Average Increment of Weight / Cure Rate (%) / Survival Number: AA broilers; for Average Weight Gain: Table 7; for Average Increment of Weight: Table 8; for Cure Rate (%) / Survival Number: 6 d; for Survival Number: 50 per group
Protocol: (§1) Then, broilers were randomly and equally divided into five different groups and marked as five groups. […] Note that the daily drug-mixed feeding ratio (g drug/kg feed) was indicated for the first 4 h every day, and unmedicated feed then followed. In addition, E. coli strains for the infection of chicken was supplied as a freeze-dried powder. They were revived and cultured according to the standard procedures. The strain was inoculated into a liquid medium and cultured in a 37 °C incubator for 6–8 h. We detected the concentration of the bacterial liquid to be 2.8 × 10^8 CFU/mL as the pathogenic concentration. Finally, all of the chickens except the healthy control group were intramuscularly injected with 0.5 mL of pathogenic bacteria, and all chickens were fasted for 4 h. After successfully simulating the bacterial infection of the chickens, the drug-mixed feeding chickens were continuously fed for 6 d. During this time, we observed their behavioral habits, mortality, and recovery rates.

E. coli [5] = experiment: Quasi-clinical trial on E. coli-infected 817 broilers (drug-mixed feeding); settings: for Average Final Weight / Average Weight Gain / Average Increment of Weight / Cure Rate (%) / Survival Number: 817 broilers; for Average Weight Gain: Table 7; for Average Increment of Weight: Table 8; for Cure Rate (%) / Survival Number: 6 d; for Survival Number: 50 per group
Protocol: as §1

[6] = Pharmacokinetic study in plasma after oral administration (HPLC-MS); settings: SD rats, EFX 10 mg/kg, EFX-Ca 12 mg/kg
[7] = system: H2O2-induced ROS production; experiment: H2O2-induced oxidative stress model in zebrafish (DCFH-DA); settings: 48 h pre-treatment, H2O2 1.0 mM 4 h, H2O2-induced 17,250, control 590
[8] = 0.01 μM medicated bath, 120 hpf
[9] = EFX-Ca High 14 g drug (5% solution) + 1.5 kg feed/4 h
[10] = EFX-Ca Low 6 g drug (5% solution) + 1.5 kg feed/4 h
[11] = EFX-Ca Medium 9 g + 1.5 kg feed
[12] = EFX-Ca Medium 9 g drug (5% solution) + 1.5 kg feed/4 h
[13] = EFX-Ca High 14 g + 0.75 kg feed
[14] = EFX-Ca High 14 g drug (5% solution) + 0.75 kg feed/4 h
[15] = EFX-Ca Low 6 g drug (5% solution) + 0.75 kg feed/4 h
[16] = EFX-Ca Medium 9 g + 0.75 kg feed
[17] = EFX-Ca Medium 9 g drug (5% solution) + 0.75 kg feed/4 h

## CCN1CCN(c2cc3c(cc2F)c(=O)c(C(=O)[O-])cn3C2CC2)CC1.CCN1CCN(c2cc3c(cc2F)c(=O)c(C(=O)[O-])cn3C2CC2)CC1.O.O.O.O.[Ca+2] [EFX-Ca, [Ca(EFX)2(H2O)4]·H2O]
[1]; 0.1 μM pre-incubation 1 h
  CuSO4-induced neutrophil aggregation: significantly dispersed
[1]; 1 μM pre-incubation 1 h
  CuSO4-induced neutrophil aggregation: the neutrophil aggregation was more effectively inhibited
[2]; 2000 mg/kg single gavage, Day-0
  Body Weight (g, x¯ ± SD): 17.51 ± 1.14 g
[2]; 2000 mg/kg single gavage, Day-1
  Body Weight (g, x¯ ± SD): 19.77 ± 1.22 g
[2]; 2000 mg/kg single gavage, Day-4
  Body Weight (g, x¯ ± SD): 25.91 ± 1.83 g
[2]; 2000 mg/kg single gavage, Day-7
  Body Weight (g, x¯ ± SD): 29.78 ± 3.46 g
[2]; 2000 mg/kg single gavage, Day-14
  Body Weight (g, x¯ ± SD): 33.33 ± 5.64 g
[2]; 3031 mg/kg single gavage, Day-0
  Body Weight (g, x¯ ± SD): 18.32 ± 0.94 g
[2]; 3031 mg/kg single gavage, Day-1
  Body Weight (g, x¯ ± SD): 19.61 ± 1.23 g
[2]; 3031 mg/kg single gavage, Day-4
  Body Weight (g, x¯ ± SD): 25.70 ± 1.24 g
[2]; 3031 mg/kg single gavage, Day-7
  Body Weight (g, x¯ ± SD): 28.44 ± 2.14 g
[2]; 3031 mg/kg single gavage, Day-14
  Body Weight (g, x¯ ± SD): 33.91 ± 5.25 g
[2]; 4595 mg/kg single gavage, Day-0
  Body Weight (g, x¯ ± SD): 17.31 ± 1.05 g
[2]; 4595 mg/kg single gavage, Day-1
  Body Weight (g, x¯ ± SD): 17.09 ± 1.56 g
[2]; 4595 mg/kg single gavage, Day-4
  Body Weight (g, x¯ ± SD): 20.10 ± 5.55 g
[2]; 4595 mg/kg single gavage, Day-7
  Body Weight (g, x¯ ± SD): 26.43 ± 5.34 g
[2]; 4595 mg/kg single gavage, Day-14
  Body Weight (g, x¯ ± SD): 33.60 ± 7.07 g
[2]; 6964 mg/kg single gavage, Day-0
  Body Weight (g, x¯ ± SD): 17.68 ± 0.88 g
[2]; 6964 mg/kg single gavage, Day-1
  Body Weight (g, x¯ ± SD): 17.21 ± 1.22 g
[2]; 6964 mg/kg single gavage, Day-4
  Body Weight (g, x¯ ± SD): 16.89 ± 5.13 g
[2]; 6964 mg/kg single gavage, Day-7
  Body Weight (g, x¯ ± SD): 23.11 ± 4.21 g
[2]; 6964 mg/kg single gavage, Day-14
  Body Weight (g, x¯ ± SD): 29.30 ± 5.26 g
[2]; 10,556 mg/kg single gavage, Day-0
  Body Weight (g, x¯ ± SD): 17.67 ± 0.72 g
[2]; 10,556 mg/kg single gavage, Day-1
  Body Weight (g, x¯ ± SD): 17.00 ± 0.30 g
[2]; 10,556 mg/kg single gavage, Day-4
  Body Weight (g, x¯ ± SD): 21.53 ± 2.10 g
[2]; 10,556 mg/kg single gavage, Day-7
  Body Weight (g, x¯ ± SD): 26.47 ± 3.50 g
[2]; 10,556 mg/kg single gavage, Day-14
  Body Weight (g, x¯ ± SD): 34.00 ± 7.50 g
[2]; 16,000 mg/kg single gavage, Day-0
  Body Weight (g, x¯ ± SD): 17.84 ± 1.23 g
[2]; 16,000 mg/kg single gavage, Day-1
  Body Weight (g, x¯ ± SD): 17.43 ± 1.95 g
[2]; 16,000 mg/kg single gavage, Day-4
  Body Weight (g, x¯ ± SD): 23.55 ± 2.66 g
[2]; 16,000 mg/kg single gavage, Day-7
  Body Weight (g, x¯ ± SD): 29.15 ± 2.66 g
[2]; 16,000 mg/kg single gavage, Day-14
  Body Weight (g, x¯ ± SD): 37.25 ± 4.57 g
[3]; 0.01 μM medicated bath, 24 hpf
  statistical death of the tested zebrafish: 6
  statistical survival of the tested zebrafish: 24
[3]; 0.01 μM medicated bath, 48 hpf
  statistical death of the tested zebrafish: 6
  statistical survival of the tested zebrafish: 24
[3]; 0.01 μM medicated bath, 72 hpf
  statistical death of the tested zebrafish: 6
  statistical survival of the tested zebrafish: 24
[3]; 0.01 μM medicated bath, 96 hpf
  statistical death of the tested zebrafish: 8
  statistical survival of the tested zebrafish: 22
[3]; [8]
  statistical death of the tested zebrafish: 8
  statistical survival of the tested zebrafish: 22
[3]; 0.1 μM medicated bath, 24 hpf
  statistical death of the tested zebrafish: 4
  statistical survival of the tested zebrafish: 26
[3]; 0.1 μM medicated bath, 48 hpf
  statistical death of the tested zebrafish: 4
  statistical survival of the tested zebrafish: 26
[3]; 0.1 μM medicated bath, 72 hpf
  statistical death of the tested zebrafish: 4
  statistical survival of the tested zebrafish: 26
[3]; 0.1 μM medicated bath, 96 hpf
  statistical death of the tested zebrafish: 4
  statistical survival of the tested zebrafish: 26
[3]; 0.1 μM medicated bath, 120 hpf
  statistical death of the tested zebrafish: 4
  statistical survival of the tested zebrafish: 26
[3]; 1 μM medicated bath, 24 hpf
  statistical death of the tested zebrafish: 2
  statistical survival of the tested zebrafish: 28
[3]; 1 μM medicated bath, 48 hpf
  statistical death of the tested zebrafish: 2
  statistical survival of the tested zebrafish: 28
[3]; 1 μM medicated bath, 72 hpf
  statistical death of the tested zebrafish: 2
  statistical survival of the tested zebrafish: 28
[3]; 1 μM medicated bath, 96 hpf
  statistical death of the tested zebrafish: 2
  statistical survival of the tested zebrafish: 28
[3]; 1 μM medicated bath, 120 hpf
  statistical death of the tested zebrafish: 2
  statistical survival of the tested zebrafish: 28
[3]; 10 μM medicated bath, 24 hpf
  statistical death of the tested zebrafish: 4
  statistical survival of the tested zebrafish: 26
[3]; 10 μM medicated bath, 48 hpf
  statistical death of the tested zebrafish: 4
  statistical survival of the tested zebrafish: 26
[3]; 10 μM medicated bath, 72 hpf
  statistical death of the tested zebrafish: 4
  statistical survival of the tested zebrafish: 26
[3]; 10 μM medicated bath, 96 hpf
  statistical death of the tested zebrafish: 4
  statistical survival of the tested zebrafish: 26
[3]; 10 μM medicated bath, 120 hpf
  statistical death of the tested zebrafish: 4
  statistical survival of the tested zebrafish: 26
[3]; 20 μM medicated bath, 24 hpf
  statistical death of the tested zebrafish: 0
  statistical survival of the tested zebrafish: 30
[3]; 20 μM medicated bath, 48 hpf
  statistical death of the tested zebrafish: 0
  statistical survival of the tested zebrafish: 30
[3]; 20 μM medicated bath, 72 hpf
  statistical death of the tested zebrafish: 0
  statistical survival of the tested zebrafish: 30
[3]; 20 μM medicated bath, 96 hpf
  statistical death of the tested zebrafish: 0
  statistical survival of the tested zebrafish: 30
[3]; 20 μM medicated bath, 120 hpf
  statistical death of the tested zebrafish: 0
  statistical survival of the tested zebrafish: 30
[3]; full-range concentration 0.01 to 20 μM, 24 to 120 hpf
  physiological abnormalities of zebrafish: no obvious physiological abnormalities
E. coli [4]; EFX-Ca High 14 g + 1.5 kg feed
  Average Final Weight: 1750 ± 125 g
  Average Weight Gain: 250
  Average Increment of Weight: 230 g
E. coli [4]; [9]
  Cure Rate (%): 60%
  Survival Number: 30
E. coli [4]; EFX-Ca Low 6 g + 1.5 kg feed
  Average Final Weight: 1690 ± 95 g
  Average Weight Gain: 190
  Average Increment of Weight: 190 g
E. coli [4]; [10]
  Cure Rate (%): 54%
  Survival Number: 27
E. coli [4]; [11]
  Average Final Weight: 1640 ± 73 g
  Average Weight Gain: 140
  Average Increment of Weight: 280 g
E. coli [4]; [12]
  Cure Rate (%): 78%
  Survival Number: 39
E. coli [4]; AA infected chickens, EFX-Ca medium dose vs EFX
  highest cure rate, higher than the EFX dose group by: 25.8%
E. coli [5]; [13]
  Average Final Weight: 1000 ± 51 g
  Average Weight Gain: 70
  Average Increment of Weight: 80 g
E. coli [5]; [14]
  Cure Rate (%): 58%
  Survival Number: 29
E. coli [5]; EFX-Ca Low 6 g + 0.75 kg feed
  Average Final Weight: 1210 ± 67 g
  Average Weight Gain: 280
  Average Increment of Weight: 260 g
E. coli [5]; [15]
  Cure Rate (%): 88%
  Survival Number: 44
E. coli [5]; [16]
  Average Final Weight: 1010 ± 61 g
  Average Weight Gain: 80
  Average Increment of Weight: 140 g
E. coli [5]; [17]
  Cure Rate (%): 80%
  Survival Number: 40
E. coli [5]; 817 infected chickens, EFX-Ca low dose vs EFX
  highest cure rate, higher than the EFX dose group by: 37.5%
[6]; plasma
  Ke: 0.16
  Tmax: 0.75 H
  Vd: 0.26744 L/kg
  t 1/2β: 4.41 H
[6]; male, SD, rat, in vivo, Drug concentration in plasma, 0 h
  concentration at 0 h: 80 ng/mL
[6]; male, SD, rat, in vivo, Drug concentration in plasma, 0.083 h
  concentration at 0.083 h: 860 ng/mL
[6]; male, SD, rat, in vivo, Drug concentration in plasma, 0.333 h
  concentration at 0.333 h: 840 ng/mL
[6]; male, SD, rat, in vivo, Drug concentration in plasma, 0.5 h
  concentration at 0.5 h: 1690 ng/mL
[6]; male, SD, rat, in vivo, Drug concentration in plasma, 0.75 h
  concentration at 0.75 h: 1920 ng/mL
[6]; male, SD, rat, in vivo, Drug concentration in plasma, 1 h
  concentration at 1 h: 1390 ng/mL
[6]; male, SD, rat, in vivo, Drug concentration in plasma, 3 h
  concentration at 3 h: 770 ng/mL
[6]; male, SD, rat, in vivo, Drug concentration in plasma, 4 h
  concentration at 4 h: 700 ng/mL
[6]; male, SD, rat, in vivo, Drug concentration in plasma, 6 h
  concentration at 6 h: 580 ng/mL
[6]; male, SD, rat, in vivo, Drug concentration in plasma, 8 h
  concentration at 8 h: 480 ng/mL
[6]; male, SD, rat, in vivo, Drug concentration in plasma, 10 h
  concentration at 10 h: 100 ng/mL
[6]; male, SD, rat, in vivo, Drug concentration in plasma, 12 h
  concentration at 12 h: 140 ng/mL
[6]; male, SD, rat, in vivo, Drug concentration in plasma, 24 h
  concentration at 24 h: 90 ng/mL
[7]; 0.01 μM
  Average IOD (integrated optical density) of green fluorescence: 1060 a.u.
[7]; 0.1 μM
  Average IOD (integrated optical density) of green fluorescence: 721 a.u.
[7]; 1 μM
  Average IOD (integrated optical density) of green fluorescence: 863 a.u.

— article PMC8878047 (Pharmaceutics, 2022)
